Data: patent US9409922B2, “Imidazopyridine macrocycles as inhibitors of human immunodeficiency virus replication” (priority 2014, dated 2016)

Test system: NL-RLuc virus
Assay: Inhibition of HIV replication: NL-RLuc reporter virus in MT-2 cells, luciferase readout
Format: cell-based
Conditions: Human immunodeficiency virus 1, MT2, 120 h, MT-2 cells infected with NL-RLuc virus, 5 days of incubation, 10% FBS, at least 2 experiments
From the text: Inhibition of HIV Replication:
A recombinant NL-RLuc proviral clone was constructed in which a section of the nef gene from NL4-3 was replaced with the Renilla Luciferase gene. This virus is fully infectious and can undergo multiple cycles of replication in cell culture. In addition, the luciferous reporter provides a simple and easy method for quantitating the extent of virus growth and consequently, the antiviral activity of test compounds. The plasmid pNLRLuc contains the proviral NL-Rluc DNA cloned into pUC 18 at the PvuII site. The NL-RLuc virus was prepared by transfection of 293T cells with the plasmid pNLRLuc. Transfections were performed using the LipofectAMINE PLUS kit from Invitrogen (Carlsbad, Calif.) according to the manufacturer and the virus generated was titered in MT-2 cells. For susceptibility analyses, the titrated virus was used to infect MT-2 cells in the presence of compound, and after 5 days of incubation, cells were processed and quantitated for virus growth by the amount of expressed luciferase. Assay media was RPMI 1640 supplemented with 10% heat inactivated fetal bovine serum (FBS), 100 units/ml penicillin G/100 units/ml streptomycin, 10 mM HEPES buffer pH 7.55 and 2 mM L-glutamine. The results from at least 2 experiments were used to calculate the EC50 values. Luciferase was quantitated using the Dual Luciferase kit from Promega (Madison, Wis.). Susceptibility of viruses to compounds was determined by incubation in the presence of serial dilutions of the compound. The 50% effective concentration (EC50) was calculated by using the exponential form of the median effect equation where (Fa)=1/[1+(ED50/drug conc.)^m](Johnson V A, Byington R T. Infectivity Assay. In Techniques in HIV Research. ed. Aldovini A, Walker B D. 71-76. New York: Stockton Press. 1990).

| SMILES | EC50 [µM] |
| --- | --- |
| Cc1cc2nc3cn2c(c1[C@H](OC(C)(C)C)C(=O)O)N1CCC(C)(CC1)OC/C=C/C[C@H](C)Oc1c(F)cccc1-c1cccc-3c1 [Example 34, (2S)-2-(tert-Butoxy)-2-[(22S,24E)-19-fluoro-4,22,28-trimethyl-21,27-dioxa-1,7,34-triazahexacyclo[26.2.2.1^6,^9.1^10,^14.0^2,^7.0^15,^20]tetratriaconta-2,4,6(34),8,10(33),11,13,15(20),16,18,24-undecaen-3-yl]acetic acid] | 0.003 |
| Cc1cc2nc3cn2c(c1[C@H](OC(C)(C)C)C(=O)O)N1CCC(C)(CC1)OCCCCCOc1ccc(F)cc1Cc1nc-3[nH]c1Cl [Example 5] | 0.007 |
| Cc1cc2c(cc1C)-c1cccc(c1)-c1cn3c(c([C@H](OC(C)(C)C)C(=O)O)c(C)cc3n1)N1CCC(C)(CC1)OCCCC[C@H](C)O2 [Example 19, (2S)-2-(tert-Butoxy)-2-[(22S)-4,17,18,22,28-pentamethyl-21,27-dioxa-1,7,34-triazahexacyclo[26.2.2.1^6,^9.1^10,^14.0^2,^7.0^15,^20]tetratriaconta-2,4,6(34),8,10(33),11,13,15(20),16,18-decaen-3-yl]acetic acid] | 0.015 |
| Cc1c([C@H](OC(C)(C)C)C(=O)O)c2n3cc(nc3c1Br)-c1cccc(c1)-c1cc(F)ccc1O[C@@H](C)CCCCOC1(C)CCN2CC1 [Example 32, (2S)-2-[(22S)-5-Bromo-17-fluoro-4,22,28-trimethyl-21,27-dioxa-1,7,34-triazahexacyclo[26.2.2.1^6,^9.1^10,^14.0^2,^7.0^15,^20]tetratriaconta-2,4,6(34),8,10(33),11,13,15(20),16,18-decaen-3-yl]-2-(tert-butoxy)acetic acid] | 0.01 |
| Cc1cc2nc3cn2c(c1[C@H](OC(C)(C)C)C(=O)O)N1CCC(C)(CC1)OCCCC[C@H](C)Oc1cc(F)c(F)cc1-c1cccc-3c1 [Example 13, (2S)-2-(tert-Butoxy)-2-[(22S)-17,18-difluoro-4,22,28-trimethyl-21,27-dioxa-1,7,34-triazahexacyclo[26.2.2.1^6,^9.1^10,^14.0^2,^7.0^15,^20]tetratriaconta-2,4,6(34),8,10(33),11,13,15(20),16,18-decaen-3-yl]acetic acid] | 0.008 |
| Cc1cc2nc3cn2c(c1[C@H](OC(C)(C)C)C(=O)O)N1CCC(C)(CCCCCOc2ccccc2CNC3=O)CC1 [Example 1, (2S)-2-(tert-Butoxy)-2-{4,25-dimethyl-10-oxo-19-oxa-1,7,11,30-tetraazapentacyclo[23.2.2.1^6,^9.0^2,^7.0^13,^18]triaconta-2,4,6(30),8,13(18),14,16-heptaen-3-yl}acetic acid] | 0.071 |
| Cc1cc2nc3c(F)n2c(c1[C@H](OC(C)(C)C)C(=O)O)N1CCC(C)(CC1)OCCCC[C@H](C)Oc1cc(F)c(F)cc1-c1cccc-3c1 [Example 26, (2S)-2-(tert-Butoxy)-2-[(22S)-8,17,18-trifluoro-4,22,28-trimethyl-21,27-dioxa-1,7,34-triazahexacyclo[26.2.2.1^6,^9.1^10,^14.0^2,^7.0^15,^20]tetratriaconta-2,4,6(34),8,10(33),11,13,15(20),16,18-decaen-3-yl]acetic acid] | 0.026 |
| Cc1cc2nc3cn2c(c1[C@H](OC(C)(C)C)C(=O)O)N1CCC(C)(CC1)OCCCC[C@H](C)Oc1ccc(F)c(F)c1-c1cccc-3c1 [Example 46, (2S)-2-(tert-butoxy)-2-[(22S)-16,17-difluoro-4,22,28-trimethyl-21,27-dioxa-1,7,34-triazahexacyclo[26.2.2.1^6,^9.1^10,^14.0^2,^7.0^15,^20]tetratriaconta-2,4,6(34),8,10(33),11,13,15(20),16,18-decaen-3-yl]acetic acid] | 0.004 |
| Cc1cc2nc3cn2c(c1[C@H](OC(C)(C)C)C(=O)O)N1CCC(C)(CCCCCCOc2ccc(F)cc2CNC3=O)CC1 [Example 2, (2S)-2-(tert-Butoxy)-2-{15-fluoro-4,26-dimethyl-10-oxo-19-oxa-1,7,11,31-tetraazapentacyclo[24.2.2.1^6,^9.0^2,^7.0^13,^18]hentriaconta-2,4,6(31),8,13(18),14,16-heptaen-3-yl}acetic acid] | 0.016 |
| CCc1c(C)c([C@H](OC(C)(C)C)C(=O)O)c2n3cc(nc13)-c1cccc(c1)-c1cc(F)ccc1O[C@@H](C)CCCCOC1(C)CCN2CC1 [Example 55, (2S)-2-(tert-Butoxy)-2-[(22S)-5-ethyl-17-fluoro-4,22,28-trimethyl-21,27-dioxa-1,7,34-triazahexacyclo[26.2.2.1^6,^9.1^10,^14.0^2,^7.0^15,^20]tetratriaconta-2,4,6(34),8,10(33),11,13,15(20),16,18-decaen-3-yl]acetic acid] | 0.009 |
| Cc1cc2c(cc1F)-c1cccc(c1)-c1cn3c(c([C@H](OC(C)(C)C)C(=O)O)c(C)cc3n1)N1CCC(C)(CC1)OCCCC[C@H](C)O2 [Example 20, (2S)-2-(tert-Butoxy)-2-[(22S)-17-fluoro-4,18,22,28-tetramethyl-21,27-dioxa-1,7,34-triazahexacyclo[26.2.2.1^6,^9.1^10,^14.0^2,^7.0^15,^20]tetratriaconta-2,4,6(34),8,10(33),11,13,15(20),16,18-decaen-3-yl]acetic acid] | 0.011 |
| CC(=O)c1c(C)c([C@H](OC(C)(C)C)C(=O)O)c2n3cc(nc13)-c1cccc(c1)-c1cc(F)ccc1O[C@@H](C)CCCCOC1(C)CCN2CC1 [Example 64, (2S)-2-[(22S)-5-Acetyl-17-fluoro-4,22,28-trimethyl-21,27-dioxa-1,7,34-triazahexacyclo[26.2.2.1^6,^9.1^10,^14.0^2,^7.0^15,^20]tetratriaconta-2,4,6(34),8,10(33),11,13,15(20),16,18-decaen-3-yl]-2-(tert-butoxy)acetic acid] | 0.006 |
| Cc1cc2c(cc1F)-c1cccc(c1)-c1nc3c(Br)c(C)c([C@H](OC(C)(C)C)C(=O)O)c(n3c1Cl)N1CCC(C)(CC1)OCCCC[C@H](C)O2 [Example 29, (2S)-2-[(22S)-5-Bromo-8-chloro-17-fluoro-4,18,22,28-tetramethyl-21,27-dioxa-1,7,34-triazahexacyclo[26.2.2.1^6,^9.1^10,^14.0^2,^7.0^15,^20]tetratriaconta-2,4,6(34),8,10(33),11,13,15(20),16,18-decaen-3-yl]-2-(tert-butoxy)acetic acid] | 0.03 |
| C=Cc1c(C)c([C@H](OC(C)(C)C)C(=O)O)c2n3cc(nc13)-c1cccc(c1)-c1cc(F)ccc1O[C@@H](C)CCCCOC1(C)CCN2CC1 [Example 38, (2S)-2-(tert-Butoxy)-2-[(22S)-5-ethenyl-17-fluoro-4,22,28-trimethyl-21,27-dioxa-1,7,34-triazahexacyclo[26.2.2.1^6,^9.1^10,^14.0^2,^7.0^15,^20]tetratriaconta-2,4,6(34),8,10(33),11,13,15(20),16,18-decaen-3-yl]acetic acid] | 0.093 |
| Cc1cc2nc3cn2c(c1[C@H](OC(C)(C)C)C(=O)O)N1CCC(C)(CC1)OCCCCC[C@H](C)Oc1cc(F)cc(F)c1-c1cccc-3c1 [Example 16, (2S)-2-(tert-Butoxy)-2-[(22S)-16,18-difluoro-4,22,28-trimethyl-21,27-dioxa-1,7,34-triazahexacyclo[26.2.2.1^6,^9.1^10,^14.0^2,^7.0^15,^20]tetratriaconta-2,4,6(34),8,10(33),11,13,15(20),16,18-decaen-3-yl]acetic acid] | 0.004 |
| Cc1c([C@H](OC(C)(C)C)C(=O)O)c2n3cc(nc3c1C(C)C)-c1cccc(c1)-c1cc(F)ccc1O[C@@H](C)CCCCOC1(C)CCN2CC1 [Example 56, (2S)-2-(tert-Butoxy)-2-[(22S)-17-fluoro-4,22,28-trimethyl-5-(propan-2-yl)-21,27-dioxa-1,7,34-triazahexacyclo[26.2.2.1^6,^9.1^10,^14.0^2,^7.0^15,^20]tetratriaconta-2,4,6(34),8,10(33),11,13,15(20),16,18-decaen-3-yl]acetic acid] | 0.072 |
| Cc1cc2nc3cn2c(c1[C@H](OC(C)(C)C)C(=O)O)N1CCC(C)(CC1)OCCCC[C@H](C)Oc1c(F)cccc1-c1cccc-3c1 [Example 35, (2S)-2-(tert-Butoxy)-2-[(22S)-19-fluoro-4,22,28-trimethyl-21,27-dioxa-1,7,34-triazahexacyclo[26.2.2.1^6,^9.1^10,^14.0^2,^7.0^15,^20]tetratriaconta-2,4,6(34),8,10(33),11,13,15(20),16,18-decaen-3-yl]acetic acid] | 0.007 |
| Cc1c([C@H](OC(C)(C)C)C(=O)O)c2n3cc(nc3c1C)-c1cccc(c1)-c1cc(OC(F)(F)F)ccc1O[C@@H](C)CCCCOC1(C)CCN2CC1 [Example 42, (2S)-2-(tert-Butoxy)-2-[(22S)-4,5,22,28-tetramethyl-17-(trifluoromethoxy)-21,27-dioxa-1,7,34-triazahexacyclo[26.2.2.1^6,^9.1^10,^14.0^2,^7.0^15,^20]tetratriaconta-2,4,6(34),8,10(33),11,13,15(20),16,18-decaen-3-yl]acetic acid] | 0.06 |
